This assay concerns the target T1, Tre6Pase activity of intact trehalose synthase (Saccharomyces cerevisiae, UniProt P31688).
T1 construct: Intact trehalose synthase was purified from commercial baker's yeast; made in house; host or cells: commercial baker's yeast (native enzyme purified, not recombinant)
T1 sequence (P31688 1-896): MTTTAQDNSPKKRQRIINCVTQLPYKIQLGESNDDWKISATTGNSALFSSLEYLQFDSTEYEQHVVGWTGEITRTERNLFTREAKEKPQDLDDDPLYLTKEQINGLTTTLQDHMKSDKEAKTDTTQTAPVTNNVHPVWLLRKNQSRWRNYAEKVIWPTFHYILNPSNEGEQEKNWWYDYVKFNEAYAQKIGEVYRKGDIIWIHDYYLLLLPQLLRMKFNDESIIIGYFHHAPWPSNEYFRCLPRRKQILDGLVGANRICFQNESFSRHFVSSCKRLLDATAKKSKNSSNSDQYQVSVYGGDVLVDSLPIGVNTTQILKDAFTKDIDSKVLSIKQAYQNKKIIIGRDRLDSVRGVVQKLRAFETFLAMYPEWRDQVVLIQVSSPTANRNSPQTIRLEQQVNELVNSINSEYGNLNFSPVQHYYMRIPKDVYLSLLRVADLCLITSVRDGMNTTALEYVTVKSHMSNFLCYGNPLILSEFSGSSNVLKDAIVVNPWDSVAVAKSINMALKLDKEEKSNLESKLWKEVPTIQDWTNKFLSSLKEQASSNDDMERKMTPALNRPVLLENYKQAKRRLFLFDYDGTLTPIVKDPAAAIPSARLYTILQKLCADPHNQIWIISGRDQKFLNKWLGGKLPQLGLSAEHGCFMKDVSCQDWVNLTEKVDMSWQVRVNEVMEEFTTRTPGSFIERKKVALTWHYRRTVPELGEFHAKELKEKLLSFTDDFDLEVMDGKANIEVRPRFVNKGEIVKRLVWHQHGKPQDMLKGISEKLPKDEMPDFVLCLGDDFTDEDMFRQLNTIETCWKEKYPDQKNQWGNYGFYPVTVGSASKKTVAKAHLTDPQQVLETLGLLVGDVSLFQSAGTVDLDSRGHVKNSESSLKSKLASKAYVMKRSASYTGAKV
T1 sequence (Q00764 1-495 partner): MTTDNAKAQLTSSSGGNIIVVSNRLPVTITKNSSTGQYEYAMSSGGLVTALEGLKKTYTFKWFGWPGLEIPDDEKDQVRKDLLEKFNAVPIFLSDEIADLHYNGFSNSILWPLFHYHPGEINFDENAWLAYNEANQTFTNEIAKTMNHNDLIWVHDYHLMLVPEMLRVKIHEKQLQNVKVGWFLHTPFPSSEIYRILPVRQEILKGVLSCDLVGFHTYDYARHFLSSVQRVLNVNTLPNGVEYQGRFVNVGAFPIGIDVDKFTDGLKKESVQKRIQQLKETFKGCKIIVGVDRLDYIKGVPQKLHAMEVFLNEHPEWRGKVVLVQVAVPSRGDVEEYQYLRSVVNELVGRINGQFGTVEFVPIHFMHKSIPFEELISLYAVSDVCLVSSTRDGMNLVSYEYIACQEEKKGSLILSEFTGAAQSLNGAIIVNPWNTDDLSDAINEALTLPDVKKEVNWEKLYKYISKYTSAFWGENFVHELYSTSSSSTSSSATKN
T1 sequence (P38427 1-1098 partner): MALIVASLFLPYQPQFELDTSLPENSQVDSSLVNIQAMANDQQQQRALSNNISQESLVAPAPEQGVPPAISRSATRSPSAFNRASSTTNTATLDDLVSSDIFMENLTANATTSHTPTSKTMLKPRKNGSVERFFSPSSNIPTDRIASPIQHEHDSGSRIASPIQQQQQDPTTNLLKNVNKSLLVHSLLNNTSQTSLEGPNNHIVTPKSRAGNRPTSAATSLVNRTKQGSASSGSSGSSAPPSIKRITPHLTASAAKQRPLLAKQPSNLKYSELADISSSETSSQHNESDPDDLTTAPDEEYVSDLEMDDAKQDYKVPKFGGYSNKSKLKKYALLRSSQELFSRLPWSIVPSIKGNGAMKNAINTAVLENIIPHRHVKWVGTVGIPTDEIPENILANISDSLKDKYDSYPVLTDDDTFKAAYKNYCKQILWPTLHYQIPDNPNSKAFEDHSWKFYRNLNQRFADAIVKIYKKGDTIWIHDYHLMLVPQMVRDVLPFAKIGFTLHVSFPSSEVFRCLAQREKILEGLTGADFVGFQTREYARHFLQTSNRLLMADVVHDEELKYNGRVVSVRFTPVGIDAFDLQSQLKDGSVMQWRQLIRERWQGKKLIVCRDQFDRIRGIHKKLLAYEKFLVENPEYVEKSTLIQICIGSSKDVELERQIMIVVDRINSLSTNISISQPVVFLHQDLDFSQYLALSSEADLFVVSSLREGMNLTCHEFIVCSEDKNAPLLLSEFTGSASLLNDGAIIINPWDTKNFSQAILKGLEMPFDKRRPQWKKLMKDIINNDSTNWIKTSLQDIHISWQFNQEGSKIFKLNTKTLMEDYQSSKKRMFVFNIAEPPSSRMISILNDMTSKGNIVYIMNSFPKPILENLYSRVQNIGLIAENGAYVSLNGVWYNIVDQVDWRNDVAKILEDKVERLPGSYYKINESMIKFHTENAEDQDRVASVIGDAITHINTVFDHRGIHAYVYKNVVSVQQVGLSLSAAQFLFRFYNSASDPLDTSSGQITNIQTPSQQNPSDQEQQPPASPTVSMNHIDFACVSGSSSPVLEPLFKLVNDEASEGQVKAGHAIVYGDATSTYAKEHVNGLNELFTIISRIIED
Kind of assay: Tre6Pase assay of intact trehalose synthase. In kind it is biochemical, baker's yeast. The method, then: With microbial materials, Tre6Pase and Tre6P synthase standard assays and other kinetic measurements were made as described by Londesborough & Vuorio [(1991) loc. cit.] except that the standard Tre6P synthase assay mixture contained 5 mM F6P unless stated otherwise.
In one experiment intact trehalose synthase (0.28 Tre6P synthase units, ≈9.4 μg) was incubated with or without 0.5 μg of trypsin at 30° C. in 250 μl of 13 mM HEPES pH 7.0 containing 1 mM MgCl2, 0.5 mM EDTA, 0.5 mM dithiothreitol, 0.2 M NaCl and 0.5 mM benzamidine. Its Tre6P synthase activity was determined at intervals using standard assay mixtures (containing 5 mM F6P) containing no or 4 mM K phosphate pH 6.8, and samples were prepared for SDS-PAGE analysis immediately before and 48 min after addition of the trypsin.
Intact trehalose synthase was prepared as in Example 1. Kinetic assays were done at 30° C. as described in General Methods and Materials.

Read-outs that look alike come from different tables or passages of the source.

Consider 2 compounds from patent US6323001A, “Increasing the trehalose content of organisms by transforming them with combinations of the structural genes for trehalose synthase” (BTG International Ltd., priority 1994, dated 2001).

`O=P(O)(O)O` [phosphate, K phosphate]: the EC50 (initial rates, intact enzyme, read-out: half maximal activation of Tre6Pase by phosphate) came to 600 µM.

As for `O=C(CO)[C@@H](O)[C@H](O)[C@H](O)COP(=O)(O)O` [Transformant F6P, Fructose 6-phosphate], where the note is “in the absence of phosphate, intact enzyme”, the “effect on Tre6Pase activity” value is recorded as “did not affect”. In addition, the inhibition at 5000 µM (read-out: inhibition of Tre6Pase activity, 5 mM F6P, saturating phosphate concentrations, intact enzyme) was in the range of 10 to 15% and the inhibition at 5000 µM (read-out: inhibition of Tre6Pase activity, 5 mM F6P, sub-optimal phosphate concentrations, intact enzyme) was 20 to 30%.
